Results on one compound are retold here after PMC3408453, “A Foldamer-Dendrimer Conjugate Neutralizes Synaptotoxic β-Amyloid Oligomers” (PLoS ONE, 2012).

The target in data set [1] is T1, Aβ oligomers (Homo sapiens, UniProt P05067).
T1 construct: a depsipeptide derivative of Aβ(1–42) was utilized; made in house; host or cells: chemical peptide synthesis (no expression host)
As to the kind of experiment: Ligand-induced precipitation during ITC titration, followed by DLS. As to conditions: 72 μM Aβ oligomer. Here is the method:
Binding of 7 to the Aβ oligomers was monitored by means of isothermal titration calorimetry (ITC). […] The titrations were run at 288 K in order to improve the signal to noise ratio, and just above the precipitation limit as the ITC method is sensitive to the thermal noise caused by the stirring of large particles. […] These values strongly supported tight binding between the Aβ oligomer species and 7.
For DLS measurements, 500 µL Aβ(1–42) solution (c = 72 µM) was prepared in PBS, and placed in a low–volume sizing cell. Size distribution was measured at 25°C on a Malvern Zetasizer Nano ZS Instrument (Malvern Instruments Ltd. Worcestershire, UK) equipped with a He-Ne laser (633 nm) by means of Non-Invasive Back Scatter (NIBS®) technology, which involves detection of the scattered light at an angle of 173°. A titration routine was formulated consisting of 12 independent measurements with a 2-min delay after each. The calculated amount of 7 solution was added to the Aβ after every second measurement. During the titration, the molar quantity of 7 varied between 0–35 µM. For a single measurement, the correlation function and distribution of the apparent hydrodynamic diameter (dh) over the scattered intensity of the particles were determined on the basis of 14 scans. […]

For data set [2], the target named is T2, LMW fraction of Aβ oligomers (Homo sapiens, UniProt P05067).
T2 construct: a depsipeptide derivative of Aβ(1–42) was utilized; made in house; host or cells: chemical peptide synthesis (no expression host)
The data set is described as follows: Concentration-dependent dot blot with SEC-separated LMW Aβ oligomer fraction. As to conditions: 10 µg ligand spotted, BAM10 1∶500. The data set is classed as binding. Here is the method:
ITC measurement for 7 indicated fractional stoichiometry for the low nM binding, which pointed to that the high affinity interaction involves only a fraction of the oligomeric Aβ sample. To localize the strongly binding fraction in the mixture, size exclusion chromatographic (SEC) separation was carried out and the resulting Aβ oligomer fractions were tested with 7 in concentration-dependent dot blot experiments. Two dominant peaks were found in the SEC chromatogram corresponding to the high molecular weight (HMW) and low molecular weight (LMW) components (Figure 7). […] In control experiments, specific and/or preferential binding of Aβ by the membrane itself were ruled out. These findings were in line with the ITC and ELISA results. It could be concluded that 7 preferentially bound to the LMW fraction at low nM concentration and also interacted with the HMW fraction at sub-µM level.
Figure 7 Selective binding to the LMW Aβ oligomers in the nM range. Size exclusion chromatographic separation of the HMW and LMW fractions of the Aβ oligomeric sample (top panel). Concentration-dependent dot blot experiments performed with the HMW (A) and the LMW fractions (B). The ligand loadings were 10 µg aliquots of 7, and the sequence specific antibody BAM10 (1∶500) was utilized. Lanes within the panels are parallel experiments. […]

The target in data set [3] is T3, Aβ oligomers (HMW and LMW fractions) (Homo sapiens, UniProt P05067).
T3 construct: a depsipeptide derivative of Aβ(1–42) was utilized; made in house; host or cells: chemical peptide synthesis (no expression host)
As to the kind of experiment: SEC analysis of Aβ oligomer – ligand mixtures (affinity precipitation). To be noted: 50 µM Aβ oligomers, injected after filtration. On the procedure:
This hypothesis was tested via SEC analysis (Figure 10A). Mixtures of 50 µM Aβ oligomers with 7 in 0.25 and 1.0 equivalents were injected on the SEC column after filtration. […] We concluded that the affinity precipitation occurs for the HMW component, but the LMW fraction is also affected at higher ligand concentrations. […] Thus it was possible to test if the LMW fraction co-elutes with 7. […] The HMW precipitate was also tested for the presence of 7 with LC-MS, and the result confirmed the heterocomplex nature of the product (Figure 10C).
Figure 10 Lower tendency of the LMW Aβ oligomer fraction to affinity precipitation. (A) SEC analysis of pure Aβ oligomers (black) and mixtures of 50 µM Aβ oligomers with 7 in 0.25 (green) and 1.0 (blue) equivalents. The samples were injected on the SEC column after filtration. […] (B) LC-MS results on the LMW fraction taken at 19 min. […] (C) LC-MS results on the HMW precipitate, which confirmed the heterocomplex nature of the product.
iso-Aβ(1–42) was dissolved in sodium hydrocarbonate buffered saline (pH 7.4) to 50 µM and incubated for 24 h at 37°C. The oligomeric Aβ was loaded onto an Äkta Purifier FPLC system (GE Healthcare, UK) equipped with a Superose 6 10 300 column. Sample was eluted at a flow rate of 0.5 ml/min. FPLC chromatogram was taken at 280 nm and 1 ml fractions were collected during the separation.
On the technique in general: SEC sorts molecules by how far they enter the pores of the column.

Take `N=C(N)NCCC[C@@H](CC(=O)N[C@H]1CCCC[C@@H]1C(=O)N[C@H]1CCCC[C@@H]1C(=O)N[C@@H](CC(=O)O)CC(=O)N[C@H]1CCCC[C@@H]1C(=O)NCC(=O)NCC(=O)N[C@@H](CSC1CC(=O)N(CCC(=O)NCCNC(=O)CCN(CCC(=O)NCCNC(=O)CCN2C(=O)CC(SC[C@H](NC(=O)CNC(=O)CNC(=O)[C@H]3CCCC[C@@H]3NC(=O)C[C@H](CC(=O)O)NC(=O)[C@H]3CCCC[C@@H]3NC(=O)[C@H]3CCCC[C@@H]3NC(=O)C[C@H](CCCNC(=N)N)NC(=O)[C@H]3CCCC[C@@H]3N)C(N)=O)C2=O)CCN(CCC(=O)NCCNC(=O)CCN2C(=O)CC(SC[C@H](NC(=O)CNC(=O)CNC(=O)[C@H]3CCCC[C@@H]3NC(=O)C[C@H](CC(=O)O)NC(=O)[C@H]3CCCC[C@@H]3NC(=O)[C@H]3CCCC[C@@H]3NC(=O)C[C@H](CCCNC(=N)N)NC(=O)[C@H]3CCCC[C@@H]3N)C(N)=O)C2=O)CCC(=O)NCCNC(=O)CCN2C(=O)CC(SC[C@H](NC(=O)CNC(=O)CNC(=O)[C@H]3CCCC[C@@H]3NC(=O)C[C@H](CC(=O)O)NC(=O)[C@H]3CCCC[C@@H]3NC(=O)[C@H]3CCCC[C@@H]3NC(=O)C[C@H](CCCNC(=N)N)NC(=O)[C@H]3CCCC[C@@H]3N)C(N)=O)C2=O)C1=O)C(N)=O)NC(=O)[C@H]1CCCC[C@@H]1N` (stereo partly shown) [Compound 7]: the “Concentration-dependent precipitation of Aβ oligomers during titration (ITC/DLS)” value in data set [1] was “the precipitation started just before the equivalence point of the second stage”. Further, the “Dot blot binding of LMW Aβ oligomer fraction” value in data set [2] was “saturation of binding in the low nanomolar region”. The “SEC: effect on HMW and LMW Aβ fractions at 0.25 equivalents of ligand” value in data set [3] (0.25 equivalents) is “the HMW fraction fully precipitated and disappeared from the SEC chromatogram, whereas the LMW fraction remained intact”. Further, in data set [3] (1.0 equivalents), the “SEC: effect on HMW and LMW Aβ fractions at 1.0 equivalents of ligand” value is “the HMW fraction again disappeared and a partial decrease was observed for the LMW fraction”.
